According to patent publication US20150057180A1, “Methods and Kits for Analyzing Biomarkers in a Signal Transduction Pathway” (BioScale, Inc., priority 2012, published 2015):
Entries after “also recorded” stand apart in the source; their conditions may differ.

What was measured:
pAKT1 [1] = assay: AMMP pAKT1 assay, A431 cells; settings: inhibitor (Neratinib 92 nM) 2 hours prior to EGF 100 ng/ml 10 minutes
Method: (§1) TPER was supplemented with phosphatase and protease inhibitors (ThermoFisher/Pierce) as described by the manufacturer. The cells were lysed by pipetting the TPER on the adhesion cell layer, or onto the cell pellet in the case of Jurkat cells. Cell lysates were collected into conical tubes, placed on ice, and vortexed every 5 minutes for a total of 20 minutes before aliquoting and freezing on dry ice. A standard BCA protein assay was used to determine total protein concentration of the lysates.
(§2) AMMP Assay Design: These studies were designed using AMMP® (Acoustic Membrane Microparticle Assay) as run on the ViBE® workstation (BioScale). Assays were constructed so that strepavidin coated magnetic microparticles were loaded with analyte-specific biotinylated antibody and the solution phase sandwich partner antibody was conjugated with fluorescein. The complex of bead-analyte and fluorescien-labeled antibody was detected by the anti-fluorescein antibody-coated acoustic membrane of the VIBE.
(§3) Assay Set-Up: Cell lysates were thawed on ice then centrifuged at 14,000 RPM. Forty microliters of diluted cell lysates were pipetted in to the appropriate well of each plate with forty microliters of sample diluent. Also to each well, a total of forty microliters of a mixture of 1.5×10^5 magnetic beads and 200 ng/ml of fluorescein labeled detector antibody were added. […]

pp38 [2] = assay: AMMP pp38 assay, MCF-7 cells
Method: as §1, §2, §3

pHER3 [3] = assay: AMMP pHER3 assay, MCF-7 cells
Method: as §1, §2
(§4) Assay Set-Up: Cell lysates were thawed on ice then centrifuged at 14,000 RPM. Forty microliters of diluted cell lysates were pipetted in to the appropriate well of each plate with forty microliters of sample diluent. Also to each well, a total of forty microliters of a mixture of 1.5×10^5 magnetic beads and 200 ng/ml of fluorescein labeled detector antibody were added. Separate wells were loaded with beads and lysates alone to serve as negative controls. The plates were loaded on the VIBE workstation (BioScale Inc., Lexington, Mass.) and incubated for 4 hours prior to analysis.

pAKT1 [4] = assay: AMMP pAKT1 assay, MCF-7 cells
Method: as §1, §2, §3

pJNK [5] = assay: AMMP pJNK assay, A431 cells
Method: as §1, §2, §4

pp38 [6] = assay: AMMP pp38 assay, A431 cells
Method: as §1, §2, §3

pMEK1 [7] = assay: AMMP pMEK1 assay, A431 cells
Excerpt: as §2, §4

pERK1/2 [8] = assay: AMMP pERK1/2 assay, A431 cells
Excerpt: as §2, §4

pHER3 [9] = assay: AMMP pHER3 assay, A431 cells; settings: for EGF stimulated phosphorylation of HER3: inhibitor (Afatinib 13 nM, Gefitinib 37 nM or Neratinib 92 nM) 2 hours prior to EGF 100 ng/ml 10 minutes
Excerpt: as §2, §4

pERK1/2 [10] = assay: AMMP pERK1/2 assay, MCF-7 cells; settings: for EGF stimulated phosphorylation of ERK1/2: inhibitor (Afatinib 13 nM, Gefitinib 37 nM or Neratinib 92 nM) 2 hours prior to EGF 100 ng/ml 10 minutes
Excerpt: as §2, §4

pMEK1 [11] = assay: AMMP pMEK1 assay, MCF-7 cells
Excerpt: as §2, §4

phosphorylated p38 = assay: AMMP phospho-p38 assay, A431 cell lysates (Example 5); format: cell-based, human; settings: EGF-stimulated A431 cells compared to unstimulated A431 cells (FIG. 38)
Method: For the sample preparation from A431 cells, the following methods were used. Human epidermoid carcinoma cells A431 (American Type Culture Collection (ATCC), Manassas, Va.; ATCC Catalog No. CRL-1555) were grown to approximately 80% confluence in T75 flasks according to standard cell culture techniques. […] Negative control cells were incubated with serum free medium without stimulant, also for 10 minutes.
Additional scraping was required to release the cells from the plastic. The resulting cell suspension was incubated for approximately 15 minutes on ice with vortexing every five minutes for effective cell lysis. Phosphatase and protease inhibitors (HALT, Thermo Fisher (Pierce)) were included in the detergent cell treatment preparation. Cell lysates were aliquoted and snap frozen on dry ice, and then transferred to a −80° C. freezer until analysis. […]
Cell lysate samples were prepared for the assays by thawing them on ice then clarifying by centrifugation in a microcentrifuge at 14,000 RPM for 10 minutes. […] Negative controls containing the bead only with the samples (no fluoresceinated antibody) were run and the ViBE response was subtracted from the sample signal readings to determine the specific assay signal.

pJNK [12] = assay: AMMP pJNK assay, MCF-7 cells; format: cell-based, human; settings: EGF 100 ng/ml for 10 minutes vs no treatment
Method: as §1, §2, §3

[13] = inhibitor (Neratinib 92 nM) 2 hours prior to EGF 100 ng/ml 10 minutes
[14] = inhibitor (Afatinib 13 nM, Gefitinib 37 nM or Neratinib 92 nM) 2 hours prior to EGF 100 ng/ml 10 minutes, listed as neratinib
[15] = EGF 100 ng/ml for 10 minutes vs no treatment

CCOc1cc2ncc(C#N)c(Nc3ccc(OCc4ccccn4)c(Cl)c3)c2cc1NC(=O)/C=C/CN(C)C [Neratinib]
EGF stimulated phosphorylation of AKT1 (pAKT1 [1]): largely unaffected
EGF stimulated phosphorylation of p38 (pp38 [2]; [13]): slight loss in phosphorylation
EGF stimulated phosphorylation of HER3 (pHER3 [3]; [13]): only partially inhibited
EGF stimulated phosphorylation of AKT1 (pAKT1 [4]; [13]): slight loss in phosphorylation
EGF stimulated phosphorylation of JNK (pJNK [5]; [13]): largely unaffected
EGF stimulated phosphorylation of p38 (pp38 [6]; inhibitor (Afatinib 13 nM, Gefitinib 37 nM or Neratinib 92 nM) 2 hours prior to EGF 100 ng/ml 10 minutes): largely unaffected
EGF stimulated phosphorylation of MEK1 (pMEK1 [7]; [14]): no such effect; also recorded: much less than expected
EGF stimulated phosphorylation of ERK1/2 (pERK1/2 [8]; [14]): no such effect; also recorded: much less than expected
EGF stimulated phosphorylation of HER3 (pHER3 [9]): largely inhibit
EGF stimulated phosphorylation of HER3 (pHER3 [9]; listed as neratinib): highly effective
EGF stimulated phosphorylation of ERK1/2 (pERK1/2 [10]): inhibitory effects
EGF stimulated phosphorylation of MEK1 (pMEK1 [11]; [13]): inhibitory effects; also recorded: partially inhibited

COc1cc2ncnc(Nc3ccc(F)c(Cl)c3)c2cc1OCCCN1CCOCC1 [gefitinib, Gefitinib]
EGF stimulated phosphorylation of ERK1/2 (pERK1/2 [10]): inhibited

epidermal growth factor [EGF]
phosphorylation of p38 on EGF stimulation (pp38 [2]; [15]): moderate phosphorylation of p38
phosphorylation of HER3 on EGF stimulation (pHER3 [3]; [15]): little phosphorylation was observed; also recorded: resulted in phosphorylation
phosphorylation of AKT1 on EGF stimulation (pAKT1 [4]; [15]): small amount of AKT1 phosphorylation
phosphorylation of JNK on EGF stimulation (pJNK [5]; [15]): no change in JNK; also recorded: No phosphorylation of JNK
phosphorylation of p38 on EGF stimulation (pp38 [6]; [15]): led to phosphorylation
phosphorylation of MEK1 on EGF stimulation (pMEK1 [7]; [15]): Strong phosphorylation of MEK1; also recorded: led to phosphorylation
amount of phospho-p38 (phosphorylated p38): dramatic increase
phosphorylation of ERK1/2 on EGF stimulation (pERK1/2 [8]; [15]): predominated the signaling pathway; also recorded: easily detected; also recorded: led to phosphorylation
phosphorylation of HER3 on EGF stimulation (pHER3 [9]; [15]): increased with EGF stimulation; also recorded: high even in non-treated A431 cells
phosphorylation of JNK on EGF stimulation (pJNK [12]): no change in JNK; also recorded: No phosphorylation of JNK
phosphorylation of ERK1/2 on EGF stimulation (pERK1/2 [10]; [15]): detected phosphorylation of ERK1/2; also recorded: detected to a lesser degree; also recorded: resulted in phosphorylation
phosphorylation of MEK1 on EGF stimulation (pMEK1 [11]; [15]): modest phosphorylation of MEK1; also recorded: resulted in phosphorylation
